Data: patent publication US10065951B2, “Small molecule transcription modulators of bromodomains” (Icahn School of Medicine at Mount Sinai, priority 2014, dated 2018)

Target: T1, CBP BRD (Homo sapiens, UniProt Q92793)
T1 construct: made in house
Assay: In vitro fluorescence polarization-based competition binding assay
Details: within series 4a-d
Description: FIG. 1A is a line drawing of the florescence polarization competition assay measuring the binding affinity of compounds 4a-d to the CBP BRD. FIG. 1B provides the IC50 values of compounds 4a-d and MS7972. Results are representative of three independent experiments and the error is SD.
Expression and purification of the recombinant CBP BRD in poly-his tag form was conducted using the procedure as previously described (Mujtaba, S. et al., Mol Cell 13, 251-63 (2004)). The purified protein was confirmed with mass spectroscopy. Binding assays were performed with CBP BRD (5 μM) and fluorescent probe (10 nM), and increasing concentration of unlabeled competing ligand.

T1 sequence (Q92793 1085-1192 limits assumed): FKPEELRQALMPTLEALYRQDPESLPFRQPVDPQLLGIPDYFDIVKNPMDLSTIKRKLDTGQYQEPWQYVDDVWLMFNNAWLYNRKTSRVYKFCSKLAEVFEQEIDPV

SMILES	binding affinity to CBP BRD, in words
CC(=O)NCCn1c2c(c3ccccc31)C(=O)NCC2 [4a, 2,3,4,5-tetrahydro-5-(2′-acetamidoethyl)-1H-pyrido-[4,3-b]indol-1-one]	lowest improvement of the series
CC(=O)NCCCCCCn1c2c(c3ccccc31)C(=O)NCC2 [4d, 2,3,4,5-tetrahydro-5-(6′-acetamidohexyl)-1H-pyrido-[4,3-b]indol-1-one]	partial or total loss of the affinity
